Here are results for ten compounds from patent US9376449B2, “Indole carboxamide derivative” (Astellas Pharma Inc., priority 2012, dated 2016).

Like-named read-outs stand apart in the source and are kept apart here.

Assay [1] deals with isolated urethra. The assay is described as follows: Test confirming that urethra contractile action by ramelteon is through MT1 and/or MT2 receptor (Luzindole). On the set-up: species or system rat. The following applies: for Second contractile rate by ramelteon (%): 20 minutes before ramelteon 1 μM, first contraction as 100%. As for the experimental part:
(2) Test for Confirming that Urethra Contractile Action is Action Through MT1 and/or MT2 Receptor
The urethra was isolated from an SD female rat having a body weight of 100 to 500 g. The isolated urethra was incised longitudinally to give a rectangular strip specimen having a width of about 3 mm, which was suspended in the muscle parallel to the circular to 10 mL of a tissue bath filled with a Krebs-Henseleit solution (pH 7.4). […] The resting tension was set to 0.5 g to record the isometric contraction. After the resting tension was stabilized, contraction was elicited by the addition of 10 μM phenylephrine. After washing and stabilizing, the test compound (ramelteon) at 1 μM was added to measure a contractile response. After washing and stabilizing, a solvent or Luzindole (purchased from Wako Pure Chemical Industries, Ltd.) (0.1 μM, 1 μM, or 10 μM) was added to the same specimen, and after 20 minutes, ramelteon at 1 μM was added again thereto to measure a contractile reaction. When the first contraction by ramelteon at 1 μM was taken as 100%, the second contractile rate by ramelteon was measured.

The target of assay [2] is human MT1 receptor (Homo sapiens, UniProt P48039). The assay is described as follows: Activation of human MT1 receptor in receptor-expressing HEK293 cells (intracellular Ca2+, FLIPR). The following applies: for EC50: HEK293 cells stably expressing human MT1 and Gq/i chimeric G-protein, intracellular Ca2+ by FLIPR. The format is cell-based. Here is the method:
(§1) (1) Isolation of Human MT1 and MT2 Receptor and Construction of Expression Vector
(§2) A human MT1 receptor gene (GenBank Accession No.: NM_005958.3) and a human MT2 receptor gene (GenBank Accession No.: NM_005959.3) were each introduced into an expression vector pCDNA3.1/Zeo (Invitrogen, Inc.).
(§3) (2) Construction of Cells Stably Expressing Human MT1 and Human MT2 Receptor
(§4) The introduction was carried out according to the attached instructions, using a Lipofectoamine (registered trademark) 2000 Reagent (Invitrogen, Inc.). Zeocin and hygromycin were used as a resistant drug, and the cell was incubated for 15 days at 0.02 mg/mL and 0.05 mg/mL, respectively, thereby acquiring drug-resistant clones.
(§5) (3) Measurement of Intracellular Ca^2+ Concentration by FLIPR (Registered Trademark)
(§6) The respective stably expressing cells were dispensed into 96-well poly-D-lysine-coated plates (Falcon Co.) to 40,000 cells/well the day before the experiment, and incubated overnight in a DMEM (Invitrogen, Inc.) medium including 10% FBS at 37° C. and 5% CO2. The medium was replaced with a loading buffer (washing solution (Hank's balanced salt solution (HBSS), 20 mM HEPES-NaOH, 2.5 mM probenecid) including Fluo-4AM (Dojindo Co.) at 4 μM), and incubated for 1 hour at 37° C. and 5% CO2. Thereafter, the cells were washed with a plate washer (ELx405, BIO-TEK Instrument, Inc.) set with the washing solution, and set in an intracellular Ca^2+ concentration measuring systems (FLIPR (registered trademark), Molecular Device Co.). The test compound was dissolved in the washing solution in advance, diluted to a final concentration of −12 to −5 log M, set in a FLIPR (registered trademark) device together with the cells, and added to the cells in the device. At this time, a change in the intracellular Ca^2+ concentrations was measured.
(§7) Ex represents Example No. of the test compound.

Assay [3] addresses T1, human MT2 receptor (Homo sapiens, UniProt P49286).
T1 sequence (P49286 1-362): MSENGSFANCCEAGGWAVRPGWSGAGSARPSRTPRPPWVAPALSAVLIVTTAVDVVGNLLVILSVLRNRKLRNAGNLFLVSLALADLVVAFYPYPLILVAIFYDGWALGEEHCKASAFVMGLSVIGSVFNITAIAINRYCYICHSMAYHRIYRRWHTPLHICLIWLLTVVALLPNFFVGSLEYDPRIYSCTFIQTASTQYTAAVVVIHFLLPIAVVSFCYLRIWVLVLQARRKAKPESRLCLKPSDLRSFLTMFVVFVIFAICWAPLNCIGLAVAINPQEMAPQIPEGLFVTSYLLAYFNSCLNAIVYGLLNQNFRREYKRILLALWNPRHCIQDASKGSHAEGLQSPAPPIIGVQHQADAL
The assay is described as follows: Activation of human MT2 receptor in receptor-expressing HEK293 cells (intracellular Ca2+, FLIPR). The format is cell-based. The note with it: for Emax: HEK293, maximum reaction by ramelteon taken as 100%, solvent only 0%; for EC50: HEK293 cells stably expressing human MT2 and Gq/i chimeric G-protein, intracellular Ca2+ by FLIPR. As for the experimental part: as §1, §2, §3, §4, §5, §6, §7

The subject of assay [4] is isolated urethra. The assay is described as follows: Isolated urethra contractile action. The following applies: test compound at 1 μM; contractile response by 10 μM phenylephrine as 100%; SD female rat urethra; read-out: Isolated urethra contraction (%). On the set-up: species or system rat. Here is the method: Test Example 2 Isolated Urethra Contractile Action
(1) Evaluation Test on Urethra Contractile Action of Test Compound Using Isolated Urethra
The urethra was isolated from an SD female rat having a body weight of 100 to 500 g. The isolated urethra was incised longitudinally to give a rectangular strip specimen having a width of about 3 mm, which was suspended in the circular muscle direction in 10 mL of a tissue bath filled with a Krebs-Henseleit solution (pH 7.4). The Krebs-Henseleit solution was bubbled with 95% O2 and 5% CO2, and kept at 37° C. The resting tension was set to 0.5 g to record the isometric contraction. After the resting tension was stabilized, contraction was elicited by the addition of 10 μM phenylephrine. After washing and stabilizing, the test compound was added cumulatively to a final concentration of −12 to −5 log M to measure a contractile response. By taking the contractile response by 10 μM phenylephrine as 100%, the ratio of the contractile response in the concentration of the test compound at 1 μM was calculated.
as §7

Assay [5] concerns urethral pressure. The assay can be described thus: Effect of test compound on urethral pressure in anesthetized rats. The format is in vivo, rat. The following applies: urethane-anesthetized SD female rats. From the text:
Test Example 3 Test to Evaluate Effect of Test Compound on Urethral Pressure
It has been reported that an increase in the urethra pressure is useful for the treatment of urinary incontinence, particularly stress urinary incontinence (for example, Drugs, 64, 14, 1503-1516 (2004)). In order to confirm whether the compound of the present invention increases the urethra pressure and thus is useful for the treatment of urinary incontinence, particularly stress urinary incontinence, the following tests were carried out.
SD female rats were anesthetized with urethane and subjected to laparotomy. Then, the bladder apex was incised and a catheter was inserted from the bladder apex. Further, the catheter tip was ligated and fixed to be located in the proximal urethra portion. The catheter was connected to a pressure transducer and an infusion pump. Further, a catheter for administrating the compound was fitted into the femoral vein. Physiological saline was continuously infused into the urethra and the perfusion pressure in the urethra was measured. After the urethral pressure was stabilized, the test compound that had been dissolved in physiological saline, or physiological saline including 5% dimethylacetamide and 0.5% Cremophor was administered intravenously at 0.1 mg/kg, and a change in urethral pressures was measured.
Further, the results of administering an active metabolite of midodrine (ST-1059: purchased from CHEMIZON) (J. Urology, 118, 980-982 (1977)) which is an α1 adrenoceptor agonist and has an effect on stress urinary incontinence in rat doses (0.01 mg/kg) presumed to correspond to the clinical doses are referenced and shown in the Tables below. The increment value in the urethra pressures of ramelteon and the Example compounds of the present invention at the time of administration are shown in Table 4. Ex represents Example No. of the test compound.

The mark [6] stands for this setting: HEK293, maximum reaction by ramelteon taken as 100%, solvent only 0%, read-out: MT1 Emax (%).

Chain of human MT1 receptor (P48039 whole entry): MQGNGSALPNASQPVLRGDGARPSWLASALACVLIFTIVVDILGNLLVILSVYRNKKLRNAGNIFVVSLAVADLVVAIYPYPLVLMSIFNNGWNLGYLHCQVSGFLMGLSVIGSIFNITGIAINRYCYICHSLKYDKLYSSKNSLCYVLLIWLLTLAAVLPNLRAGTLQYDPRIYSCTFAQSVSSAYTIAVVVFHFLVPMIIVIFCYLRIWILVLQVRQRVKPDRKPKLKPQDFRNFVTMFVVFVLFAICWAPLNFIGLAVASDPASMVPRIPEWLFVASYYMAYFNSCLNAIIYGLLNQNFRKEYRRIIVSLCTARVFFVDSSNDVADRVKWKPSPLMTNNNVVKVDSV

`CC(=O)NCCc1c(Cc2ccccc2)[nH]c2ccccc12` [Luzindole]: the “Second contractile rate by ramelteon (%)” value in assay [1] (Luzindole 0.1 μM) was found to be 88 ± 11%; in assay [1] (Luzindole 1 μM), 75 ± 5%; in assay [1] (Luzindole 10 μM) it was 61 ± 9%. The “inhibition of isolated urethra contractile action by ramelteon” value in assay [1] (treatment with Luzindole 0.1-10 μM, in words) is reported as “inhibited in a concentration-dependent manner”.
`CCCC(=O)NCCc1c(C(=O)NC)[nH]c2cc(Cl)c(OC)cc12` [Ex 34, 3-[2-(butyrylamino)ethyl]-6-chloro-5-methoxy-N-methyl-1H-indole-2-carboxamide]: the Emax came to 75% in assay [2] (setting [6]) and 92% in assay [3]. The EC50 is 32 nM in assay [2] and 4.4 nM in assay [3].
As for `CCCC(=O)NCCc1c(C(=O)NC)[nH]c2cc(F)c(OC)cc12` [Ex 35], the Emax came to 110% in assay [2] (setting [6]) and 102% in assay [3]. Moreover, the EC50 in assay [2] amounted to 3.2 nM; in assay [3] it was 11 nM. Also, the activation at 1 µM in assay [4] is 171%. The “Increment value in the urethra pressures (mmHg)” value (shortened to “Increment value”) in assay [5] (0.1 mg/kg intravenously) worked out at 8.2 ± 1.6 mmHg.
For `CNC(=O)c1[nH]c2c(F)cc(OC)cc2c1CCNC(=O)C(F)F` [Ex 53], the results for the Emax in assay [2] (setting [6]) and in assay [3] were 103% and 105%, respectively. The EC50 in assay [2] was 19 nM; in assay [3] it was 9.2 nM. In addition, the “Increment value” value in assay [5] (0.1 mg/kg intravenously) is given as 10.5 ± 0.6 mmHg.
The corresponding values for `CNC(=O)c1[nH]c2ccc(OC)nc2c1CCNC(=O)C(F)F` [Ex 48] are 122%, 109%, 12 nM, 43 nM and 7.3 ± 0.7 mmHg.
As for `COc1ccc2[nH]cc(CCNC(C)=O)c2c1` [Melatonin, melatonin, reference compound], in assay [2] (HEK293, read-out: MT1 Emax (%)), the Emax was determined as 94%.
Regarding `CCC(=O)NCCc1c(C(=O)NC)[nH]c2cc(F)c(OC)cc12` [Ex 36], the values for the Emax in assay [2] (setting [6]) and in assay [3] were 121% and 104%, respectively. Besides, the figures for the EC50 in assay [2] and in assay [3] were 10 nM and 18 nM, respectively. Also, the activation at 1 µM in assay [4] stood at 107%. In assay [5] (0.1 mg/kg intravenously), the “Increment value” value was found to be 7.3 ± 0.2 mmHg.
Turning to `CCCC(=O)NCCc1c(C(=O)NC)[nH]c2ccc(OC)cc12` [Ex 32], the Emax is 106% in assay [2] (setting [6]) and 111% in assay [3]. Moreover, the results for the EC50 in assay [2] and in assay [3] were 7.7 nM and 31 nM, respectively. Also, in assay [4], the activation at 1 µM is 143%. The “Increment value” value in assay [5] (0.1 mg/kg intravenously) is 10.8 ± 2.9 mmHg.
Take `COc1ccc(OC)c(C(O)CN)c1` (stereo not drawn) [ST-1059, reference compound]: the “Increment value” value in assay [5] (0.01 mg/kg (rat dose presumed to correspond to clinical dose)) worked out at 4.9 ± 1.1 mmHg.
As for `CNC(=O)c1[nH]c2cc(Cl)c(OC)cc2c1CCNC(C)=O` [Ex 12, 3-(2-acetamidoethyl)-6-chloro-5-methoxy-N-methyl-1H-indole-2-carboxamide], the maximal effect (Emax) in assay [2] (setting [6]) amounted to 68%; in assay [3], 70%. For the same compound, the EC50 in assay [2] came out at 86 nM; in assay [3], 12 nM.
